Source: US20090306080A1, “VETERINARY FORMULATION” (priority 2006, published 2009)

Type: physicochemical
Details: pH 7
Text: The solubility of cyromazine in a range of organic solvents including solvents which are commonly used in topical spray-on formulations is shown in the table below.

## Nc1nc(N)nc(NC2CC2)n1 [cyromazine, 2-cyclopropyl-amino-4,6-diamino-s-triazine]
  Solubility (g/kg) at 20° C.: 1.3 (pH 7) g/kg
